We go through one compound from patent US20240366611A1, “METHODS OF TREATING A DISEASE OR DISORDER” (Ascentage Pharma (Suzhou) Co., Ltd., priority 2021, published 2024).

The test system of assay [1] is H3K27me3 in TER119+ erythroid lineage cells. Kind of assay: H3K27me3 level in TER119+ erythroid lineage cells from bone marrow (FACS, H3K27me3/H3 ratio). Format: in vivo, CD-1 mice. The protocol: Female CD-1 mice (8 weeks old) were housed and handled in a temperature-controlled environment with a 12-h light/12-h dark cycle. A total of 25 mice were assigned to 5 groups by randomization based on body weight, followed by 5 days of treatment with vehicle (po, qd), 3 mg/kg Cpd. 73 (po, qd), 10 mg/kg Cpd. 73 (po, qd), 30 mg/kg Cpd. 73 (po, qd), or 90 mg/kg Cpd. 73 (po, qd). The protocols and procedures involving the care and use of animals were approved by the Institutional Animal Care and Use Committee (IACUC) of WuXiAppTec (Shanghai) Co., Ltd. (Shanghai, China).
Mice were euthanatized 4 hours post the last dose. Whole blood and bone marrow were collected. Bone marrow cells were flushed from femur and tibia with IMDM+/+ (IMDM, 10% heat inactivated FBS, 100 U/mL penicillin and 100 μg/mL streptomycin). Aggregate was removed by passing through 40 μm cell strainer. 5 mL DPBS was used to pellet the cells after centrifugation, and the cell number was counted. Whole blood was added with 1×RBC lysis buffer remove RBC (whole blood: 1×RBC lysis buffer=1:9), and mononuclear cells were collected by centrifugation. The cells were then washed with 1×DPBS for once and resuspended in 3 ml DPBS after centrifugation followed by cell number counting.
Bone marrow cells were stained with FITC-conjugated anti-mouse TER-119 antibody (Thermo Fisher, 11-5921-82) and eFluor 506-conjugated anti-mouse CD45 antibody (Thermo Fisher, 69-0451-82). TER-119+ cells were erythroid lineage cells. PBMC were stained with eFlour 450-conjugated anti-mouse CD11b antibody (Invitrogen, 48-0112-82), PerCP-eFluor710-conjugated anti-mouse CD3 antibody (Invitrogen, 46-0032-82), eFluor 506-conjugated anti-mouse CD45 antibody (Thermo Fisher, 69-0451-82). CD45+CD3−CD11b+ cells were monocytes from PBMC.
After washing, centrifugation and fixation, the cells were permeabilized and further incubated with antibodies of H3K27m3 (Tri-Methyl-Histone H3 (Lys27) (C36B11) Rabbit mAb (PE Conjugate), CST, 40724S) and H3 (Histone H3 (D1H2) XP® Rabbit mAb (Alexa Fluor®647 Conjugate), CST, 12230S), followed by FACS analysis to quantify the mean fluorescence intensity of target cells. The ratio between the fluorescence intensity of H3K27me3 and H3 were used to reflect the level of H3K27me3 in the cells.

Assay [2] concerns TNBS induced IBD in Balb/c mice. Kind of assay: TNBS induced inflammatory bowel disease (IBD) model. In kind it is in vivo. As to the method: Female Balb/c mice (8 weeks old) were obtained from Beijing Vital River Laboratory Animal Co. Ltd. Animals, and then housed and handled in a temperature-controlled environment with a 12-h light/12-h dark cycle. A total of 30 mice were assigned to 3 groups by randomization based on body weight.
On Day 0, the mice weighing 18-20 g were anesthetized with […] (Easycheck, M2910), and then further intra-rectally injected 100 μL 1.5% TNBS solution (final concentration in 50% ethanol) in the vehicle group and treatment groups. For the Sham group, the mice were intra-rectally injected with 50% ethanol at the same volume.
Mice in Group 1 and Group 2 were treated with vehicle for 8 days (po, qd, from day −1 to day 6). Mice in Group 3 were treated with 90 mg/kg Cpd. 73 for 8 days (po, qd, from day −1 to day 6). The protocols and procedures involving the care and use of animals were approved by the Institutional Animal Care and Use Committee (IACUC) at WuxiApptec (Shanghai, China).
Clinical signs of IBD were assessed every day based on the score of disease activity index (DAI) which was evaluated from three parameters using a scoring system from 0 to 4: stool consistency (0, normal stool; 1, soft but still formed stool; 2, soft and not formed stool; 3, very soft and wet stool; 4, watery diarrhea), bleeding score (0, negative hemoccult; 1, weak positive hemoccult; 2, positive hemoccult; 3, blood trace in stool visible; 4, gross rectal bleeding) and body weight loss (0, no body weight loos; 1, 1-5% body weight loss; 2, 6-10% body weight loss; 3, 11-20% body weight loss; 4, >20% body weight loss).
At the end of experiment (day 7), the animals were euthanized, dissected and the entire colon was quickly removed and gently cleared of feces.
At the end of experiment, the animals were euthanized, and blood was collected immediately by the heart punctures and used for whole blood cell analysis.
At the end of the study (day 7), the cell suspensions from sham control, model control and Cpd. 73 treatment groups were obtained from mesenteric lymph nodes (MLN). Cells were stained with the following florescence-labelled antibodies: APC-Cy7-conjugated anti-mouse CD45, BV510-conjugated anti-mouse CD3e, AF700-conjugated anti-mouse CD8a, BUV395-conjugated anti-mouse CD4, BV421-conjugated anti-mouse CD25, FITC-conjugated anti-mouse Foxp3, BV650-conjugated anti-mouse IFN-γ, APC-conjugated anti-mouse B220, BV395-conjugated anti-mouse CD3e, BV605-conjugated anti-mouse CD11b, BB700-conjugated anti-mouse CD11c, AF488-conjugated anti-mouse MHCII, BV421-conjugated anti-mouse NK1.1, BV510-conjugated anti-mouse Ly6G, PE-Cy7-conjugated anti-mouse CD107a and PE-CF594-conjugated anti-mouse F4/80. All cells were primarily gated on single and live lymphocytes based on forward scatter (FCS), side scatter (SSC) and live/dead staining buffer. Samples were analyzed on a flow cytometer (BD LSRFortessa) to count the percentage of each subtype of lymphocytes.
At the end of the study (day 7), all the animals were sacrificed by CO2. The colon was Swiss-rolled and fixed with neutralized PFA followed by H&E staining. After that, the pathologists from WuXi clinical pathological analysis platform, who were blinded to animal ID, reviewed the H&E staining and scored. The pathological scoring standards were as follows: crypt architecture (normal, 0; severe crypt distortion with loss of entire crypts, 3), degree of inflammatory cell infiltration (normal, 0; dense inflammatory infiltrate, 3), muscle thickening (normal, 0; marked muscle thickening present, 3), goblet cell depletion (absent, 0; present, 1) and crypt abscess (absent, 0; present, 1).
The fixed colon was stained with Masson's Trichrome to assess the collagen fibers in colon tissue. The Masson's Trichrome staining procedures was followed the standard protocol. After that, the pathological doctors from WuXi clinical pathological analysis platform reviewed the whole slices and scored blinded with animal information. […]

Setting [3] is: 90 mg/kg po qd day −1 to day 6, end of experiment, vs vehicle.
Setting [4] is: 90 mg/kg po qd day −1 to day 6, vs vehicle.
[5] abbreviates: 90 mg/kg, day 7, flow cytometry, vs vehicle control.

As to `CC(C)N1Cc2cc(C(F)(F)F)ncc2-c2cnc(NCc3c(F)ccc4c3CCO4)n3cnc(c23)C1=O` [Cpd. 73, 12-(((5-fluoro-2,3-dihydrobenzofuran-4-yl)methyl)amino)-4-isopropyl-7-(trifluoromethyl)-4,5-dihydro-3H-2,4,8,11,12a-pentaazabenzo[4,5]cycloocta[1,2,3-cd]inden-3-one], the “decrease in H3K27me3 level” value in assay [1] (3 mg/kg po qd×5 days, vs vehicle) is 21.2%. For the same compound, in assay [1] (10 mg/kg po qd×5 days, vs vehicle), the “decrease in H3K27me3 level” value is given as 18.7%. Further, in assay [1] (30 mg/kg po qd×5 days, vs vehicle), the “decrease in H3K27me3 level” value amounted to 21.6%. The “decrease in H3K27me3 level” value in assay [1] (90 mg/kg po qd×5 days, p<0.01 vs vehicle) is 39.7%. Also, the colon length in assay [2] (90 mg/kg po qd day −1 to day 6, day 7, vehicle 6.26±0.17 cm) stood at 8.79±0.22 cm. For the same compound, the “pathological score (H&E, colon)” value in assay [2] (90 mg/kg po qd day −1 to day 6, day 7, vehicle 10.33±0.35) is recorded as 1.70±0.37. The colon weight in assay [2] (90 mg/kg po qd day −1 to day 6, day 7, vehicle 336.8±26.68 mg) turned out to be 213.8 ± 6.08 mg. Besides, the “anemia (red blood cells and hemoglobin in peripheral blood)” value in assay [2] (90 mg/kg po qd day −1 to day 6, end of experiment) is given as “improved”. In assay [2] (setting [3]), the “cell number of monocytes in peripheral blood” value was “significantly reduced” and the “cell number of neutrophils in peripheral blood” value is reported as “significantly reduced”. In addition, in assay [2] (90 mg/kg po qd day −1 to day 6, vehicle 4.33±0.30), the “fibrosis score (Masson's Trichrome, colon)” value is on record as 1.10±0.17. In addition, in assay [2] (setting [4]), the DAI score entry was “significantly reducing” and the body weight loss entry is “improving”. Moreover, in assay [2] (setting [5]), the “percentage of IFN-γ secreting CD4+ T cells (Th1 cells) in MLN” value is recorded as “significantly reduced”, the “percentage of NK cells in MLN” value is reported as “significantly reduced”, the “percentage of activated NK cells in MLN” value is “significantly reduced” and the “percentage of macrophages in MLN” value is recorded as “significantly reduced”. In addition, in assay [2] (setting [5]), the “percentage of neutrophils in mesenteric lymph nodes (MLN)” value was “significantly reduced”.
